Reference: patent US8741951B2, “Non-steroidal compounds for androgen receptor modulation” (CNR—Consiglio Nazionale delle Ricerche, priority 2009, dated 2014)
Entries after “also recorded” stand apart in the source; their conditions may differ. Like-named read-outs stand apart in the source and are kept apart here.

Columns and labels:
[1] = system: DU145 cell line; test: SRB cytotoxicity, DU145; type: cell-based, human; details: DU145 (no AR), 144 h, up to 20 μM
Description: (§1) FIGS. 16-25: cytotoxic effect of compounds (R)-XXIII-2, (R)-XXIII-3, (R)-XXIII-4, (R)-XXIII-5, (R)-XXIII-6, (R)-XXIII-7, (R)-XXIII-8, (R)-XXIII-9, (R)-XXIII-10, (R)-XXIV-9 on PC-3 and DU-145 cell lines at different concentration (0.02, 0.2, 2, 20 μM) after 144 h exposure. On the x-axis is reported the concentration, while on the y-axis is reported the inhibition of the net growth (% net growth).
(§2) Sulforhodamine B (SRB) assay was used according to the method by Skehan et al. (JNCI, 1990). Briefly, cells were collected by trypsinization, counted and plated at a density of 5,000 cells/well in 96-well flat-bottomed microtiter plates (100 μl of cell suspension/well). In the chemosensitivity assay, experiments were run in octuplicate, and each experiment was repeated three times. The optical density (OD) of cells was determined at a wavelength of 490 nm by a colorimetric plate reader.
(§3) If ODtreated is above ODzero, treatment has induced a cytostatic effect, whereas if ODtreated is below ODzero, cell killing has occurred. The ODzero depicts the cell number at the moment of drug addition, the ODcontrol reflects the cell number in untreated wells and the ODtreated reflects the cell number in treated wells on the day of the assay.

[2] = system: human hepatoblastoma cell line HepG2; test: Cytotoxic activity on HepG2 (hepato-toxicity); type: cell-based; details: HepG2, up to highest concentration tested
Description: as §2, §3
FIG. 27-36 show the cytotoxic activity of the drugs on the human hepatoblastoma cell line HepG2. The authors evaluated in vitro the potential hepato-toxicity of some of the novel compounds on HepG2 cell line, a human hepatoblastoma cell line that retains the specialized function of normal hepatocytes [Knowles B B, Howe C C, Aden D P. Human hepatocellular carcinoma cell lines secretes the major plasma proteins and hepatitis B surface antigen. Science 1980, 209:497-499; Aden D P, Vogel A, Plortkin S, Damjanov I, Knowles B B. Controlled synthesis of HBS Ag in a differentiated human liver carcinoma-derived cell line. Nature, 1979, 282:615-616].

[3] = system: LNCaP-AR cells; test: SRB in vitro chemosensitivity assay, LNCaP-AR; type: cell-based; details: for GI50: Homo sapiens, LNCaP/AR; for GI50 / cytotoxic effect (cytostatic / cytocidal), in words: 144 h; for LC50: LNCaP-AR cells, 144 h exposure; for LC50 / cytotoxic effect (cytostatic / cytocidal), in words: up to 20 μM; for cytotoxic effect (cytostatic / cytocidal), in words: LNCaP-AR
Description: (§4) The cell lines were maintained as a monolayer at 37° C. and subcultured weekly. Culture medium was composed of RPMI 1640 supplemented with 10% fetal calf serum and 1% glutamine (Mascia Brunelli s.p.a., Milan, Italy). Cells were used in the exponential growth phase in all the experiments.
(§5) Compounds were dissolved in acetone or DMSO (AITES) ([…]) and stored at −20° C. The cell culture containing acetone at the highest concentration was used as the control.
as §2, §3
(§6) FIGS. 2-11 show the cytotoxic activity of the derivative compounds of the invention on the LNCaP and LNCaP-AR cell lines. The authors examined the antitumour activity of the compounds for which the synthesis is described above, in the hormone-sensitive prostate cancer cell line LNCaP and in its derivative cell line LNCaP-AR, expressing high level of AR and with hormone refractory prostate cancer (HRPC) features. The novel compounds were tested at the increasing concentrations of […], 0.2, 2.0, and 20.0 μM. The highest dose used was chosen on the basis of the clinically achievable peak plasma concentration reported in the literature for bicalutamide (Cockshott I D. Clin Pharmacokinet. 2004; 43(13): 855-78). After 144-hr exposure time the cytotoxic effect of the molecules was calculated according to the method of Monks et al. (Monks A, Scudiero D, Skehan P, et al. Feasibility of a high-flux anticancer drug screen using a diverse panel of cultured human tumor cell lines. J Natl Cancer Inst. 1991; 83: 757-66.)

[4] = system: LNCaP cells; test: SRB in vitro chemosensitivity assay, LNCaP; type: cell-based
Description: as §4, §5, §2, §3, §6

[5] = molecular target: T1, human androgen receptor (hAR) (Homo sapiens, UniProt P10275); test: hAR transactivation assay (ARE-luc) in Cos-7 cells; type: cell-based; details: for inhibition of R1881-induced AR transcriptional activation (antagonistic activity), in words: compound 10 μM with 10 nM R1881; for agonistic activity on AR transcription, in words: compound alone, 10 nM to 1 μM or 10 μM
T1 construct: expressed in transfected cells; host or cells: Cos-7
T1 sequence (P10275 1-920): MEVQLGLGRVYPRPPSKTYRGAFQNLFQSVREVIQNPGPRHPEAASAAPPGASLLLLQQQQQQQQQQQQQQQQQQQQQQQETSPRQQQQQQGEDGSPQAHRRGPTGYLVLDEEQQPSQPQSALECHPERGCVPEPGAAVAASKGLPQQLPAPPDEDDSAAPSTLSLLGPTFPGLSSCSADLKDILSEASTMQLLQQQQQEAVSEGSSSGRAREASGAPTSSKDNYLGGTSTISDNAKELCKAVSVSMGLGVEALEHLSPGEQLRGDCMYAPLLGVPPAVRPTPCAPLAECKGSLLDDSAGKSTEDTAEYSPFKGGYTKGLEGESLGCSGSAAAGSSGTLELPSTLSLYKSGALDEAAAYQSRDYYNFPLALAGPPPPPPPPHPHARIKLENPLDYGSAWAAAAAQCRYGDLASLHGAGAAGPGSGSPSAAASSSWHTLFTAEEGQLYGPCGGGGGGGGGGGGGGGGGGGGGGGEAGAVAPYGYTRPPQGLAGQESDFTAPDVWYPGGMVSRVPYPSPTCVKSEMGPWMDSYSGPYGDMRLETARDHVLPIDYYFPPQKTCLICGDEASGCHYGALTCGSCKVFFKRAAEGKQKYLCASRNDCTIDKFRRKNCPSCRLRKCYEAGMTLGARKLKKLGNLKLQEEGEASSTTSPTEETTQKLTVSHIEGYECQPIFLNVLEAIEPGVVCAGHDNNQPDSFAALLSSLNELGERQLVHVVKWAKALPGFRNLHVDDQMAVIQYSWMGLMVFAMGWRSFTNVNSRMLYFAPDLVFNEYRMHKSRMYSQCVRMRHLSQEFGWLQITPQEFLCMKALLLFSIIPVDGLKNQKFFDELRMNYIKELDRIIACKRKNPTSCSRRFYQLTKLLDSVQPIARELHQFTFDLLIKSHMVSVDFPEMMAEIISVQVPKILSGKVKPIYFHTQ
From the text: The cDNA coding hAR was cloned into the pSG5 expression vector as reported previously [Chang, C. S., J. Kokontis, and S. T. Liao 1988 Molecular cloning of human and rat complementary DNA encoding androgen receptors Science 240:324-326].
The 3416 construct (ARE-Luc), containing four copies of the wild-type slp-HRE2 (5′-TGGTCAgccAGTTCT-3′) was cloned in the NheI site in pTK-TATA-Luc [Verrijdt, G., E. Schoenmakers, A. Haelens, B. Peeters, G. Verhoeven, W. Rombauts, and F. Claessens 2000 Change of specificity mutations in androgen selective enhancers J. Biol. Chem. 275:12298-12305].
For androgen-stimulated transcriptional analysis, 32×10^4 Cos-7 cells were plated in phenol red-free DMEM containing 5% charcoal-stripped serum. After 48 h, the cells were transfected by Superfect (Qiagen) with 0.3 μg of 3416-pTK-TATA-Luc construct, together with 1.5 μg of either pSG5-empty plasmid or pSG5-hAR expressing plasmid. […] When indicated, the synthetic compounds were added alone to the cell medium. […] It was dissolved in 0.001% (final concentration) ethanol. Control cells were treated with the vehicle alone. Lysates were prepared and the luciferase activity was measured using a luciferase assay system (Promega). The results were corrected using CH110-expressed beta-galactosidase activity (Amersham Biosciences) and luciferase activity was expressed as fold induction. Results were obtained from two or three different experiments, each performed in duplicate. Mean and SEM are shown.

[6] = system: PC-3 cell line; test: SRB cytotoxicity, PC-3; type: cell-based, human; details: PC-3 (no AR), 144 h, up to 20 μM
Description: as §1, §2, §3

[7] = LNCaP cells, 144 h exposure, up to 20 μM

Row | Structure (SMILES) | cytotoxic activity, in words [1] | hepato-toxicity, in words [2] | GI50 [3] [µM] | LC50 [3] | cytotoxic effect (cytostatic / cytocidal), in words [3] | GI50 ([4]; Homo sapiens, LNCaP, 144 h) [µM] | LC50 [4, 7] | cytotoxic effect (cytostatic / cytocidal), in words ([4]; LNCaP, 144 h, up to 20 μM) | inhibition of R1881-induced AR transcriptional activation (antagonistic activity), in words [5] | agonistic activity on AR transcription, in words [5] | cytotoxic activity, in words [6] | cytotoxic activity, in words ([1]; listed as (R)-XIII-5) | LC50 ([4]; Homo sapiens, LNCaP, 144 h, read-out: LC50, LNCaP cells, 144 h exposure, up to 20 μM) [µM] | LC50 ([4]; read-out: LC50, LNCaP cells, 144 h exposure, up to 20 μM) [µM] | cytotoxic activity, in words ([6]; listed as (R)-XIII-5)
1 | N#Cc1ccc(NC(=O)[C@](O)(Cc2ccccc2)CS(=O)(=O)c2ccc(F)cc2)cc1C(F)(F)F [(R)-XXIII-3] | negligible cytotoxic activity | did not display toxicity | 6.2 | n.r. | suppress completely the cell growth | 1.8 | n.r. | suppress completely the cell growth | A more robust inhibition | do not exhibit agonistic activity | negligible cytotoxic activity |  |  |  | 
2 | N#Cc1ccc(NC(=O)[C@](O)(Cc2ccc(F)cc2)CS(=O)(=O)c2ccc(F)cc2)cc1C(F)(F)F [(R)-XXIII-4] | negligible cytotoxic activity | did not display toxicity | 7.5 | n.r. | suppress completely the cell growth | 7 | n.r. | suppress completely the cell growth | A more pronounced inhibition |  | negligible cytotoxic activity |  |  |  | 
3 | N#Cc1ccc(NC(=O)[C@@](O)(CS(=O)(=O)c2ccc(F)cc2)c2ccccc2)cc1C(F)(F)F [(R)-XXIII-8] | negligible cytotoxic activity | did not display toxicity | 11.6 | n.r. | suppress completely the cell growth | 11.8 | n.r. | suppress completely the cell growth |  | does not increase the transcriptional activity of AR | negligible cytotoxic activity |  |  |  | 
4 | N#Cc1ccc(NC(=O)[C@](O)(Cc2ccc(C(F)(F)F)cc2)CS(=O)(=O)c2ccc(F)cc2)cc1C(F)(F)F [(R)-XXIII-5] |  | did not display toxicity | 1.9 | n.r. | cell killing activity | 2 |  | cell killing activity | A more robust inhibition | do not exhibit agonistic activity |  | negligible cytotoxic activity; also recorded: reduced cytotoxic propriety | 16.2 to 20 | 16.2 | negligible cytotoxic activity; also recorded: reduced cytotoxic propriety
